Laboratory results published in patent publication US20160312261A1, “ENZYMATIC PRODUCTION OF CYTOSINIC NUCLEOSIDE ANALOGUES” (PLASMIA BIOTECH, S.L., priority 2015, published 2016).

Experiment: Thermal stability of Capecitabine on heating
Format: physicochemical
Conditions: heating at 90° C. during 10 hours at neutral pH
Procedure: The one step process for the preparation of Capecitabine disclosed in WO 2011/104540 suffers from important loses of the final product. Capecitabine suffers from thermal instability at high temperatures, and after heating the product at 90° C. during 10 hours at neutral pH, up to 40% of the product is lost. On the contrary, the enzymatic process of the invention runs at milder conditions, using water as solvent and furnishing yields higher than 70%.

For `CCCCCOC(=O)Nc1nc(=O)n([C@@H]2O[C@H](C)[C@@H](O)[C@H]2O)cc1F` [Capecitabine, N^4-pentyloxycarbonyl-5′-deoxy-5-fluorocytidine], the “product lost after heating (thermal instability)” value was “up to 40%”.
